Reference: ChEMBL document CHEMBL1201862, “PubChem BioAssay data set” (2004)
The source made the active and inactive calls.

Assays:
Beta-galactosidase = Beta-galactosidase (Escherichia coli, UniProt Q8VNN2); test: Dose response counterscreen for EBI2 assay utilizing the enzyme, b-galactosidase.; format: functional
BJ [1] = test: cytotoxicity toward BJ-TERT fibroblasts, dose response, cell-based, RAS-independent, luminescence (AID 1933); format: functional; conditions: Homo sapiens
BJ [2] = test: cells; format: functional, cell-based; conditions: Homo sapiens
BJ [3] = test: cytotoxicity toward BJ-TERT-LT-ST fibroblasts, dose response, cell-based, RAS-independent, luminescence (AID 1935); format: functional; conditions: Homo sapiens;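 also: BJ fibroblasts immortalized with TERT plus LT and ST oncogenes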
[4] = cytotoxicity toward DRD oncogenic fibroblasts, dose response, cell-based, non-viral oncogenic, luminescence (AID 1934); format: functional; conditions: Homo sapiens
BJ [5] = test: cytotoxicity toward Ras-transformed BJeLR fibroblasts, dose response, cell-based, alamar blue fluorescence, cherrypicked samples (AID 2631); format: functional; conditions: Homo sapiens;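 also: confirmatory dose-response assay in RAS-dependent BJ fibroblasts engineered with TERT, LT and ST, with cytotoxicity read by fluorescence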
[6] = inhibitors of HIV Env-driven cell fusion, dose response, cherry-pick (AID 652057); format: functional, cell-based
[7] = CEM21 lymphoblast cell cytotoxicity, dose response, cytotoxicity control for viral fusion inhibitor project, CellTiter-Glo luminescence, cherry-picked (AID 652042); format: functional, cell-based;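 also: potency for signal decrease meaning cytotoxicity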
[8] = off-target signal loss in HeLa-CEM21 co-culture – HeLa F-luc CTL cells, cherry-picked, counter-screen for HIV-1 Env fusion inhibitor project, dose response (AID 652040); format: functional, cell-based;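 also: potency for signal decrease marking cytotoxic or nonspecific inhibition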
[9] = inhibitors of clade B AD8 Env fusion, dose response, cell-based, cherry-pick (AID 652062); format: functional;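 also: luciferase signal from cell-cell fusion driven by HIV-1 clade B AD8 Env; potency is for inhibitors of fusion seen as a drop in luminescence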
[10] = HEp-2 cell cytotoxicity, dose response, cytotoxicity control for RSV inhibitor project, HTS (AID 2410); format: functional; conditions: human respiratory syncytial virus
[11] = biological target: T1, Replicative DNA helicase DnaB (Mycobacterium tuberculosis, UniProt P9WMR3); test: DnaB intein splicing inhibitors, dose response, biochemical, cell-free fluorescence (AID 449749); format: functional
T1 sequence (P9WMR3 whole entry): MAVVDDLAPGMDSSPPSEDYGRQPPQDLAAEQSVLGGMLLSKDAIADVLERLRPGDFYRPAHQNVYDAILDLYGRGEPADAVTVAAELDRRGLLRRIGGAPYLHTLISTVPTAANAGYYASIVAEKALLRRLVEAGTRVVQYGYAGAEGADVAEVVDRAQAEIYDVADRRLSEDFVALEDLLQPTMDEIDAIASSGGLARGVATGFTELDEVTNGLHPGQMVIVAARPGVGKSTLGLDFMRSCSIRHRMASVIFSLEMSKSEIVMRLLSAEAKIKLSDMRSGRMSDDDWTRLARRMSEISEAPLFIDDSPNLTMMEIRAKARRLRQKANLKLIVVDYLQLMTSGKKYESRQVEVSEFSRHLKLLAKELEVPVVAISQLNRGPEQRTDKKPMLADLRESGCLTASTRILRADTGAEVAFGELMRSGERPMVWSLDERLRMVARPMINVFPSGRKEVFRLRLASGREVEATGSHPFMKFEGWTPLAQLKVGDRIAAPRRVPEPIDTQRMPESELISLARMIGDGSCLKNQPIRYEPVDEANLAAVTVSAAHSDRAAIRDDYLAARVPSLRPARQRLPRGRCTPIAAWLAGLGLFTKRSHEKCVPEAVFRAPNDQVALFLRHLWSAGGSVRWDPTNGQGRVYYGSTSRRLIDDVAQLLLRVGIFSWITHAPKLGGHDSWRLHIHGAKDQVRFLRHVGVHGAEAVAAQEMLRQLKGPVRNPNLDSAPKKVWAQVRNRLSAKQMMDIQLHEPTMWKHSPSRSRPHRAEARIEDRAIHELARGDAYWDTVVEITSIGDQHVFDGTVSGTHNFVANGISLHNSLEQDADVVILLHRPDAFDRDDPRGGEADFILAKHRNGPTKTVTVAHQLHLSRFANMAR

Protein RecA = biological target: T2, Protein RecA (Mycobacterium tuberculosis, UniProt P9WHJ3); test: Fluorescence Cell-Free Homogeneous Dose Retest to Identify Inhibitors of RecA-Intein Splicing Activity. [Related pubchem assays (depositor defined):AID2097, AID2223, AID489010, AID492950]; format: functional
T2 sequence (P9WHJ3 whole entry): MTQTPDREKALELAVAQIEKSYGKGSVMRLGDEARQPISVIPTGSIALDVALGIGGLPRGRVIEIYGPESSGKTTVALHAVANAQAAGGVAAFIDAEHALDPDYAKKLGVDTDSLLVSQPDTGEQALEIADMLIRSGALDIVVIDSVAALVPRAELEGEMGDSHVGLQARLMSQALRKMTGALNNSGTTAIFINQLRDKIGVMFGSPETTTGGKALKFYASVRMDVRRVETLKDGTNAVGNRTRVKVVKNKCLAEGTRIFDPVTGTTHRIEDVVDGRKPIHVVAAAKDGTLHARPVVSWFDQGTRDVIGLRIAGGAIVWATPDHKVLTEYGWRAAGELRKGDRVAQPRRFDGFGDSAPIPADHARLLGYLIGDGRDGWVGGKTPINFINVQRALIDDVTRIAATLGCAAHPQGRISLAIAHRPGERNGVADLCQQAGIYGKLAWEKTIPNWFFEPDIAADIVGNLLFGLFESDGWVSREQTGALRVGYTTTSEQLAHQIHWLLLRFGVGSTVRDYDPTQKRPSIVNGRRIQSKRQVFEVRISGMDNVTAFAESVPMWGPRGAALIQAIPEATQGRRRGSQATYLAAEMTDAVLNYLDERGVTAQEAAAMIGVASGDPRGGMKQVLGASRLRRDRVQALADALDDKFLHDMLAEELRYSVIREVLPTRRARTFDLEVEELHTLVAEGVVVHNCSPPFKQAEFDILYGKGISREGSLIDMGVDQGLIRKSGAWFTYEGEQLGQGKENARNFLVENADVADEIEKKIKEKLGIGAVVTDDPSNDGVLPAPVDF

[12] = ZM109 Env clade C HIV-1 fusion inhibitors, dose response, HeLa effector, CEM target cells, luciferase, cherry-pick (AID 652058); format: functional, cell-based
[13] = Luminescence Cell-Based Dose Response HTS to Identify Activators of Luciferase Translation or Activity in H4 […] Cells. [Related pubchem assays: 1829 (Project Summary), 1814 (Primary HTS)]; format: functional
H4 = test: Luminescence Cell-Based Dose Response HTS to Identify Activators of 5'UTR Stem-Loop Driven Prion Protein mRNA Translation in H4 Neuroglioblastoma Cells. [Related pubchem assays: 1829 (Project Summary), 1814 (Primary HTS)]; format: functional; conditions: Homo sapiens
[14] = DNA binding of candidate compounds, dose response, artefact control for RAD54 inhibitor project, biochemical, fluorescence polarization, cherry-pick (AID 651673); format: functional
[15] = biological target: T3, DNA repair and recombination protein RAD54-like (Homo sapiens, UniProt Q92698); test: inhibitors of human RAD54 branch migration, confirmation, biochemical, fluorescence, cherry-picked samples, dose series (AID 651657); format: functional
T3 sequence (Q92698 whole entry): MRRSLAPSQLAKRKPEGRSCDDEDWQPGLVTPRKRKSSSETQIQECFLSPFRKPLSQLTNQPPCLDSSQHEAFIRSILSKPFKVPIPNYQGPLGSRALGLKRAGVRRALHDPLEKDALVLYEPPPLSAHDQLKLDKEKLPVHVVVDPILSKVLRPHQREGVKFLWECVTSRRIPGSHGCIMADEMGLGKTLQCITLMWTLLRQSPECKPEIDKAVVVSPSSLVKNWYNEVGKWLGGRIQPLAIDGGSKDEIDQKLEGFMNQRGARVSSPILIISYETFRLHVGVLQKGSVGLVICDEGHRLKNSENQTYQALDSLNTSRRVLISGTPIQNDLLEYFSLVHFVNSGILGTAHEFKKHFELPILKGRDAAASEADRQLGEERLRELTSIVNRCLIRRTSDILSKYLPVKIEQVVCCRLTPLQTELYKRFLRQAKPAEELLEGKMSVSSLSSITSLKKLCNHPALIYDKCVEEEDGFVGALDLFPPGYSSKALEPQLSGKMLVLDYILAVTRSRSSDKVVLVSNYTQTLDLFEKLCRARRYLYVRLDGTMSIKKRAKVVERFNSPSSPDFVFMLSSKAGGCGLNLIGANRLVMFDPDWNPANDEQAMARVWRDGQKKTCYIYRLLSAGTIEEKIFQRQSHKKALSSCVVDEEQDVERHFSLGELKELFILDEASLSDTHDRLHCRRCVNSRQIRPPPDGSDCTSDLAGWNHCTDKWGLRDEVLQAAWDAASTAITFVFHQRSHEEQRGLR

[16] = biological target: SWI/SNF-related matrix-associated actin-dependent regulator of chromatin subfamily A member 2 (Homo sapiens, UniProt P51531); test: Luminescence-based cell-based high throughput dose response assay to identify activators of the function of SWI/SNF related, matrix associated, actin dependent regulator of chromatin, subfamily a, member 2 (SMARCA2, BRM).; format: functional
[17] = Counterscreen for activators of the function of SWI/SNF related, matrix associated, actin dependent regulator of chromatin, subfamily a, member 2 (SMARCA2, BRM): Luminescence-based cell-based high throughput dose response assay to identify non-selective compounds using the VP16 reporter assay.; format: functional
[18] = biological target: T4, DNA repair protein RAD52 homolog (Homo sapiens, UniProt P43351); format: functional, biochemical
T4 sequence (P43351 whole entry): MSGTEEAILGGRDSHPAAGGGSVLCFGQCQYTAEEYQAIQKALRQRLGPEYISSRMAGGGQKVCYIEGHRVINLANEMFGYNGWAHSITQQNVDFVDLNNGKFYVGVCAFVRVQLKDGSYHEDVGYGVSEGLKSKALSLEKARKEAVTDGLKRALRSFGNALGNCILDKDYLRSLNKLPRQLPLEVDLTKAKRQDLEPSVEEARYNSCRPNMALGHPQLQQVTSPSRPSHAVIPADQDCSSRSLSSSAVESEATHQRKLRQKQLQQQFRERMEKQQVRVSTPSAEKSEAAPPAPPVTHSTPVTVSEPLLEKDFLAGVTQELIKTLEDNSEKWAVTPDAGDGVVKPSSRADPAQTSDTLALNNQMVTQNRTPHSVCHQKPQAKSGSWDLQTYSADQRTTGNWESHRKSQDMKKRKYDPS

cells [19] = format: functional, cell-based
cells [20] = format: functional, cell-based; remark: listed apart in the source
[21] = biological target: Luciferin 4-monooxygenase (Photinus pyralis, UniProt P08659); test: firefly luciferase enzyme inhibitors, dose response, biochemical, luminescence (AID 1891)
[22] = Luminescence Cell-Based Dose Confirmation HTS to Identify Inhibitors of Platelet Dense Granule Release. [Related pubchem assays: 1663 (Primary HTS), 1678 (Summary of Project)]; format: functional
[23] = inhibitors of intracellular T. cruzi replication, confirmation, NIH3T3 host cells, beta-gal luminescence (AID 2044); format: functional, cell-based;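 also: intracellular parasites grown in NIH/3T3 mouse fibroblasts as host cells; luminescent beta-galactosidase reporter signal from transgenic T. cruzi replicating inside host cells; inhibitors lower the luminescence signal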
[24] = cytotoxicity toward NIH3T3 fibroblasts, dose response, counter-screen, cell-based, ATP luminescence, mouse fibroblasts (AID 2010); format: functional;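 also: cells exposed to compound for about 90 hours before reading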
[25] = biological target: T5, Oxysterols receptor LXR-beta (Homo sapiens, UniProt P55055); format: functional, cell-based;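 also: agonist activity at LXR measured by a cell-based luminescence readout across a dose range, run as a counterscreen for daf-12 agonists; HEK293 cells with Gal4-LXR fusion and GAL4-driven luciferase reporter; potency for activation of Gal4-LXR reporter so compounds are agonists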
T5 sequence (P55055 whole entry): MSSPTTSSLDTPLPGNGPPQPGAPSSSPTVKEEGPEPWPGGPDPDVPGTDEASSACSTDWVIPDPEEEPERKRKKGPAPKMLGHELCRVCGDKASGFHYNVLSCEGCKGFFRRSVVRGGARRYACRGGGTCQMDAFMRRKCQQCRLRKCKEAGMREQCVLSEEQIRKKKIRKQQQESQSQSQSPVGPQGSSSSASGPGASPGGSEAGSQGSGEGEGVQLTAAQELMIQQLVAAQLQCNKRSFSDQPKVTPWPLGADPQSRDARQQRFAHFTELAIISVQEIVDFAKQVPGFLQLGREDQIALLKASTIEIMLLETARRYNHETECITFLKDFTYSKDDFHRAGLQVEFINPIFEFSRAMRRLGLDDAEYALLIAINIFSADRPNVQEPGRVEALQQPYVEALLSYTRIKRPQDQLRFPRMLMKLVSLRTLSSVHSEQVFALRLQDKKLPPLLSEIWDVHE

Sequence of Beta-galactosidase (Q8VNN2 whole entry): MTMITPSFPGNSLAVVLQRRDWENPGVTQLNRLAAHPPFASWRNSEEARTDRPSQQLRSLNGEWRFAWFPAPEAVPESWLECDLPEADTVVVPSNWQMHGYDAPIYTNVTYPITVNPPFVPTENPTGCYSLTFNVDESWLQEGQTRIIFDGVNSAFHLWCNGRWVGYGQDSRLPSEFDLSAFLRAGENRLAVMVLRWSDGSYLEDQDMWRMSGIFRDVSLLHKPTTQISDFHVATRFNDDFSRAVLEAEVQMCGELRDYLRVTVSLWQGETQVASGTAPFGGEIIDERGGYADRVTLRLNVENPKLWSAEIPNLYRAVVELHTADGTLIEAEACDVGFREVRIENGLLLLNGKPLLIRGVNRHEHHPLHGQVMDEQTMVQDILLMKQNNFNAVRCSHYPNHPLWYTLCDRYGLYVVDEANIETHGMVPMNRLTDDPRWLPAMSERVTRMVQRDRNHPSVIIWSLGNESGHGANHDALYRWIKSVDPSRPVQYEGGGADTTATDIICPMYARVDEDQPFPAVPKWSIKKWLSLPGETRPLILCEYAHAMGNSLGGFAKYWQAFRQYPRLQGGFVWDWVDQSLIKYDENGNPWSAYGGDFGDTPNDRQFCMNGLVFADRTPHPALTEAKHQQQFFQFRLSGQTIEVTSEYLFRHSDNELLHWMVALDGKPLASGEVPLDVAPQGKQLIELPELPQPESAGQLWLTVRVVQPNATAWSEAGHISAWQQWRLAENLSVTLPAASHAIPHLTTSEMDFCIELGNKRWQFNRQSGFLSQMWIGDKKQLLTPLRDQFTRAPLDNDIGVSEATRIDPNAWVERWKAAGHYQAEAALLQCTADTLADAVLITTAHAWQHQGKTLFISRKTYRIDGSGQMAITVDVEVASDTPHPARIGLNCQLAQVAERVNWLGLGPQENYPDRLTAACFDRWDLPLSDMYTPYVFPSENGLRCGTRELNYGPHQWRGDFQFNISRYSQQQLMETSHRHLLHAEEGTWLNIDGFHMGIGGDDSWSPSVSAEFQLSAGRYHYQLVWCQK
Sequence of Luciferin 4-monooxygenase (P08659 whole entry): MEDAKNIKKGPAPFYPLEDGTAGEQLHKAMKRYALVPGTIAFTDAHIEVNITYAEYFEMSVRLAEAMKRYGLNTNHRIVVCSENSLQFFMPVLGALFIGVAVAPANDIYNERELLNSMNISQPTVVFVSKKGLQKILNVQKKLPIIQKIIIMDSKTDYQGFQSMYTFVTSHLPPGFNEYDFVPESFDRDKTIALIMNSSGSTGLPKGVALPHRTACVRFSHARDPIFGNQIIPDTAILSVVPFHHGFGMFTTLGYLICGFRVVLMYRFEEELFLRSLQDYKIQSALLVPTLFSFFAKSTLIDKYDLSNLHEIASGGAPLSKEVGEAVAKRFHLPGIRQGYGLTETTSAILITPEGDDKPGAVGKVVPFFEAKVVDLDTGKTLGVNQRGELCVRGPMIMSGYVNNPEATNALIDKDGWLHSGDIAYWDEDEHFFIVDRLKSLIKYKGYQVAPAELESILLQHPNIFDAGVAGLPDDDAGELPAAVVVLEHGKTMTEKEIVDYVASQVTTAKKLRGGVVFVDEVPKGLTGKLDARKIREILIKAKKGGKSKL
Sequence of SWI/SNF-related matrix-associated actin-dependent regulator of chromatin subfamily A member 2 (P51531 whole entry): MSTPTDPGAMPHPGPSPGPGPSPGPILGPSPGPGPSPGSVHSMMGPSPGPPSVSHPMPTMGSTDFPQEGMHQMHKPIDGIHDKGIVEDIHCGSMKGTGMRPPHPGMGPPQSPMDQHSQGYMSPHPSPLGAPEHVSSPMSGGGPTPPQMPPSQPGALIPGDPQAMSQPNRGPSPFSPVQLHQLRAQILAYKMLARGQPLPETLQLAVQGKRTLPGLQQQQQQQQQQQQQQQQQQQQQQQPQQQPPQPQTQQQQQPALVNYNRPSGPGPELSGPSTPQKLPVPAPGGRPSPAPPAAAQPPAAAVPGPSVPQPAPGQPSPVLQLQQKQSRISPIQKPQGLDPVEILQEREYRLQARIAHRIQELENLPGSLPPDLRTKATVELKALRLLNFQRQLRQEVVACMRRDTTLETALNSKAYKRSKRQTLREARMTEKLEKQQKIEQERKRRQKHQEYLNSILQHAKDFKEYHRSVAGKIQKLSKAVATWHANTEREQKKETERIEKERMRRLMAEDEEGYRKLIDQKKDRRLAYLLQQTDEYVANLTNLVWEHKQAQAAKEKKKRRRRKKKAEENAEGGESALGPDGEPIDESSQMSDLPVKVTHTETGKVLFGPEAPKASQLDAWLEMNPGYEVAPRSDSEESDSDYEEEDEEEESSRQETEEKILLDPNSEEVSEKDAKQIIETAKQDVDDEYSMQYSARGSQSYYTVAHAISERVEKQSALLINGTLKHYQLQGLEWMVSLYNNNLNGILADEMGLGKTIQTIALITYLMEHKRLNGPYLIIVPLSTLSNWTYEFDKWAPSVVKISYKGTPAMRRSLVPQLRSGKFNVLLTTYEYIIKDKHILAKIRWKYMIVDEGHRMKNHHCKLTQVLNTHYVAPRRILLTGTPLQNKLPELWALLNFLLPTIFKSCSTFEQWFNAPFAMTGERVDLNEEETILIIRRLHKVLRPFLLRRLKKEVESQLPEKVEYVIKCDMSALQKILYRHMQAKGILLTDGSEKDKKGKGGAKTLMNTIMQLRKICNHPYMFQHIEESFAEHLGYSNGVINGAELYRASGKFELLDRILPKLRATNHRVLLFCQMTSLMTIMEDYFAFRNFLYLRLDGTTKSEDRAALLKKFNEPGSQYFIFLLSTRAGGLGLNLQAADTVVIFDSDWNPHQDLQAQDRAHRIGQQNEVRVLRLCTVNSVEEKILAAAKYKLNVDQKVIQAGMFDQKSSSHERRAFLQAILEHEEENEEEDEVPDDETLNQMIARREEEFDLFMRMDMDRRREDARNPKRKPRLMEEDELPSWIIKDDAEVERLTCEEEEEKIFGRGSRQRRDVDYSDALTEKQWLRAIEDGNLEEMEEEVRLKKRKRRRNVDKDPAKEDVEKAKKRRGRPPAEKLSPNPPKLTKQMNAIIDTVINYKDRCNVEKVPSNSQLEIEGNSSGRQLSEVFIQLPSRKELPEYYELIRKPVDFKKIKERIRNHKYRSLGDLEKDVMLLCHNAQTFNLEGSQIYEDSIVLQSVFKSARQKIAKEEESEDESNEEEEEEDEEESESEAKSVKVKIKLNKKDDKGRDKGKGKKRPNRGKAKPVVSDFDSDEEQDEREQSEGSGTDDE

SMILES: O=C(/C=C/c1ccc(Cl)cc1)N1CCN(c2ccccc2[N+](=O)[O-])CC1
- IC50 (Beta-galactosidase): > 80 µM (inactive)

SMILES: COc1ccc2nc(O)c(CN(Cc3cccs3)S(=O)(=O)c3cccc4nsnc34)cc2c1
- EC50 (BJ [1]): 21.1 µM (active)
- EC50 (BJ [2]): 25.6 µM (inconclusive)
- EC50 (BJ [3]): > 150 µM (not active)
- EC50 [4]: 14.5 µM (active)
- EC50 (BJ [5]): 1.62 µM (active)
- AC50 [6]: 4.12 µM (active)
- AC50 [7]: 38.4 µM (active)
- AC50 [8]: 16.9 µM (active)
- AC50 [9]: 3.31 µM (active)

SMILES: Oc1nnc(Sc2ncnc3sccc23)n1CCc1ccccc1
- CC50 [10]: 14.9 µM (active)
- AC50 [11]: > 380 µM (inactive)
- EC50 (Protein RecA): 18 µM (active)
- AC50 [6]: 7.58 µM (active)
- AC50 [7]: 27 µM (active)
- AC50 [12]: 16.6 µM (active)
- AC50 [8]: 17.3 µM (active)
- AC50 [9]: 18.1 µM (active)

SMILES: CCN(CC)CCCNc1nc2ccccc2c2nc(-c3ccncc3)nn12
- EC50 [13]: 16.5 µM (active)
- EC50 (H4): > 120 µM (not active)
- AC50 [14]: 40.4 µM (active)
- AC50 [15]: 6.19 µM (active)
- EC50 [16]: 32.5 µM (inactive)
- EC50 [17]: > 91.2 µM (inactive)
- AC50 [18]: 10.4 µM (active)

SMILES: CN(Cc1ccc(F)cc1)C(=O)COc1ccc2ccccc2c1
- IC50 (Beta-galactosidase): > 80 µM (inactive)

SMILES: Oc1cc(C=NNc2ccccc2)nc(O)n1
- IC50 (cells [19]): > 29.9 µM (inactive)
- EC50 (cells [20]): > 29.9 µM (inactive)

SMILES: Cc1cc(C)c2c(=O)n3c(nc2c1)C(CC(C)C)NC(=O)c1cc2ccccc2cc1-3 (centres undefined)
- IC50 (Beta-galactosidase): > 80 µM (inactive)

SMILES: CN1CCN(/C=N/c2sc3c(c2C#N)CCCCC3)CC1
- EC50 [21]: > 112 µM (not active)
- EC50 [22]: > 112 µM (not active)
- EC50 [23]: 1.01 µM (active)
- EC50 [24]: > 60 µM (not active)
- EC50 [25]: > 67.5 µM (inactive)
